According to patent publication US9023852B2, “1, 2, 4-thiadiazol-5-ylpiperazine derivatives useful in the treatment of neurodegenerative diseases” (Remynd NV, priority 2011, dated 2015):

What follows are molecules tested on M17—3TAU(P301L) cells (assay: Neuroblastoma tauopathy model: inhibition of TAU-induced cytotoxicity (LDH)). Conditions: Homo sapiens, 168 h; inhibition of TAU-induced toxicity (LDH), 7 days differentiation with retinoic acid.
Assay type: cell-based
Procedure, shortened: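 BE-M17 neuroblastoma cells stably expressing human TAU-P301L, differentiated with RA (2.5 μM in added medium) for 7 days at 37 °C with compounds at a range of concentrations. Cytotoxicity as supernatant LDH over total LDH (Cytotox 96); EC50 from dose-dependent inhibition curve.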

SMILES	EC50 [nM]
FC(F)(F)c1cccc(CCN2CCN(c3nc(-c4cncc(Cl)c4)ns3)CC2)c1 [Example 149, 1-[3-(5-Chloro-pyridin-3-yl)-[1,2,4]thiadiazol-5-yl]-4-[2-(3-trifluoromethyl-phenyl)-ethyl]-piperazine]	3
COc1cc(CCN2CCN(c3nc(-c4cnnc(C)c4)ns3)CC2)ccn1 [Example 176, 5-(4-(2-(2-methoxypyridin-4-yl)ethyl)piperazin-1-yl)-3-(6-methylpyridazin-4-yl)-1,2,4-thiadiazole]	19.5
COc1ccc(CCN2CCN(c3nc(-c4cc(Cl)ccn4)ns3)CC2)cc1 [Example 125, 1-[3-(4-Chloro-pyridin-2-yl)-[1,2,4]thiadiazol-5-yl]-4-[2-(4-methoxy-phenyl)-ethyl]-piperazine]	3
Cc1ncc(-c2nsc(N3CCN(CCc4ccc(F)cc4)CC3)n2)cn1 [Example 181, 5-(4-(4-fluorophenethyl)piperazin-1-yl)-3-(2-methylpyrimidin-5-yl)-1,2,4-thiadiazole]	31.6
Fc1ccc(-c2nsc(N3CCN(CCc4ccc(Cl)cc4)CC3)n2)cc1F [Example 104, 1-[2-(4-Chloro-phenyl)-ethyl]-4-[3-(3,4-difluoro-phenyl)-[1,2,4]thiadiazol-5-yl]-piperazine]	11.2
COc1ccc(CCN2CCN(c3nc(-c4cccc(C#N)c4)ns3)CC2)cc1 [Example 81, 3-(5-{4-[2-(4-Methoxy-phenyl)-ethyl]-piperazin-1-yl}-[1,2,4]thiadiazol-3-yl)-benzonitrile]	0.6
Fc1ccc(CCN2CCN(c3nc(-c4ccc(F)c(F)c4)ns3)CC2)cc1F [Example 136, 1-[2-(3,4-Difluoro-phenyl)-ethyl]-4-[3-(3,4-difluoro-phenyl)-[1,2,4]thiadiazol-5-yl]-piperazine]	6.2
Fc1ccccc1CCN1CCN(c2nc(-c3ccc(Cl)cc3)ns2)CC1 [Example 28, 1-[3-(4-Chloro-phenyl)-[1,2,4]thiadiazol-5-yl]-4-[2-(2-fluoro-phenyl)-ethyl]-piperazine]	45.2
CC(C)Oc1ccc(CCN2CCN(c3nc(-c4ccc(Cl)cc4)ns3)CC2)cc1 [Example 71, 1-[3-(4-Chloro-phenyl)-[1,2,4]thiadiazol-5-yl]-4-[2-(4-isopropoxy-phenyl)-ethyl]-piperazine]	429
Cc1ccc(-c2nsc(N3CCN(Cc4ccccc4C)CC3)n2)cn1 [Example 150, 1-(2-Methyl-benzyl)-4-[3-(6-methyl-pyridin-3-yl)-[1,2,4]thiadiazol-5-yl]-piperazine]	185
Cc1cc(-c2nsc(N3CCN(CCc4ccc(F)c(F)c4)CC3)n2)cnn1 [Example 175, 5-(4-(3,4-difluorophenethyl)piperazin-1-yl)-3-(6-methylpyridazin-4-yl)-1,2,4-thiadiazole]	13.4
COc1ccc(CCN2CCN(c3nc(-c4ccncc4)ns3)CC2)cc1 [Example 43, 1-[2-(4-Methoxy-phenyl)-ethyl]-4-(3-pyridin-4-yl-[1,2,4]thiadiazol-5-yl)-piperazine]	3.3
Clc1ccc(-c2nsc(N3CCN(CCc4ccccc4Cl)CC3)n2)cc1 [Example 29, 1-[2-(2-Chloro-phenyl)-ethyl]-4-[3-(4-chloro-phenyl)-[1,2,4]thiadiazol-5-yl]-piperazine]	1.3
COc1ccc(CCN2CCN(c3nc(-c4ccccc4Cl)ns3)CC2)cc1 [Example 58, 1-[3-(2-Chloro-phenyl)-[1,2,4]thiadiazol-5-yl]-4-[2-(4-methoxy-phenyl)-ethyl]-piperazine]	2.2
COc1ccc(CCN2CCN(c3nc(-c4ccc(F)c(F)c4)ns3)CC2)cc1 [Example 102, 1-[3-(3,4-Difluoro-phenyl)-[1,2,4]thiadiazol-5-yl]-4-[2-(4-methoxy-phenyl)-ethyl]-piperazine]	0.9
Fc1ccc(CCN2CCN(c3nc(-c4cc(Cl)ccn4)ns3)CC2)cc1F [Example 157, 3-(4-chloropyridin-2-yl)-5-(4-(3,4-difluorophenethyl)piperazin-1-yl)-1,2,4-thiadiazole]	29
COc1ccc(CCN2CCN(c3nc(-c4ccc(C)cc4)ns3)CC2)cc1 [Example 19, 1-[2-(4-Methoxy-phenyl)-ethyl]-4-(3-p-tolyl-[1,2,4]thiadiazol-5-yl)-piperazine]	2
COc1ccc(CCN2CCN(c3nc(-c4cncc(Cl)c4)ns3)CC2)cc1 [Example 91, 1-[3-(5-Chloro-pyridin-3-yl)-[1,2,4]thiadiazol-5-yl]-4-[2-(4-methoxy-phenyl)-ethyl]-piperazine]	0.9
FC(F)(F)c1cccc(CCN2CCN(c3nc(-c4cccc(Cl)c4)ns3)CC2)c1 [Example 142, 1-[3-(3-Chloro-phenyl)-[1,2,4]thiadiazol-5-yl]-4-[2-(3-trifluoromethyl-phenyl)-ethyl]-piperazine]	3.7
CCOc1ccc(CCN2CCN(c3nc(-c4ccc(Cl)cc4)ns3)CC2)cc1 [Example 50, 1-[3-(4-Chloro-phenyl)-[1,2,4]thiadiazol-5-yl]-4-[2-(4-ethoxy-phenyl)-ethyl]-piperazine]	169

SMILES	EC50 [nM]
Clc1cccc(-c2nsc(N3CCN(CCC4CCCCC4)CC3)n2)c1 [Example 162, 3-(3-chlorophenyl)-5-(4-(2-cyclohexylethyl)piperazin-1-yl)-1,2,4-thiadiazole]	3.3
Clc1ccc(-c2nsc(N3CCN(CC4(c5ccc(Cl)cc5)CC4)CC3)n2)cc1 [Example 68, 1-[1-(4-Chloro-phenyl)-cyclopropylmethyl]-4-[3-(4-chloro-phenyl)-[1,2,4]thiadiazol-5-yl]-piperazine]	899
COc1cccc(CCN2CCN(c3nc(-c4ccc(Cl)cc4F)ns3)CC2)c1 [Example 55, 1-[3-(4-Chloro-2-fluoro-phenyl)-[1,2,4]thiadiazol-5-yl]-4-[2-(3-methoxy-phenyl)-ethyl]-piperazine]	4.2
COc1ccc(CCN2CCN(c3nc(-c4ccc(Cl)cc4)ns3)CC2)cc1F [Example 80, 1-[3-(4-Chloro-phenyl)-[1,2,4]thiadiazol-5-yl]-4-[2-(3-fluoro-4-methoxy-phenyl)-ethyl]-piperazine]	2.7
COc1ccc(CCN2CCN(c3nc(-c4cnccn4)ns3)CC2)cc1 [Example 76, 2-(5-{4-[2-(4-Methoxy-phenyl)-ethyl]-piperazin-1-yl}-[1,2,4]thiadiazol-3-yl)-pyrazine]	40.8
FC(F)(F)c1cccc(CCN2CCN(c3nc(-c4ccc(Cl)cc4)ns3)CC2)c1 [Example 140, 1-[3-(4-Chloro-phenyl)-[1,2,4]thiadiazol-5-yl]-4-[2-(3-trifluoromethyl-phenyl)-ethyl]-piperazine]	72.6
Clc1cncc(-c2nsc(N3CCN(CCc4ccccc4)CC3)n2)c1 [Example 130, 1-[3-(5-Chloro-pyridin-3-yl)-[1,2,4]thiadiazol-5-yl]-4-phenethyl-piperazine]	0.9
COc1ccc(CCN2CCN(c3nc(-c4ccc(C#N)cc4)ns3)CC2)cn1 [Example 114, 4-(5-{4-[2-(6-Methoxy-pyridin-3-yl)-ethyl]-piperazin-1-yl}-[1,2,4]thiadiazol-3-yl)-benzonitrile]	7.9
COc1cccc(CCN2CCN(c3nc(-c4cccs4)ns3)CC2)c1 [Example 33, 1-[2-(3-Methoxy-phenyl)-ethyl]-4-(3-thiophen-2-yl-[1,2,4]thiadiazol-5-yl)-piperazine]	158
Fc1cccc(-c2nsc(N3CCN(CCc4ccc(F)c(F)c4)CC3)n2)c1 [Example 156, 5-(4-(3,4-difluorophenethyl)piperazin-1-yl)-3-(3-fluorophenyl)-1,2,4-thiadiazole]	11.9
COc1ccc(CCN2CCN(c3nc(-c4ccccc4OC)ns3)CC2)cc1 [Example 45, 1-[2-(4-Methoxy-phenyl)-ethyl]-4-[3-(2-methoxy-phenyl)[1,2,4]thiadiazol-5-yl]-piperazine]	0.7
COc1cc(CCN2CCN(c3nc(-c4cccc(C#N)c4)ns3)CC2)ccn1 [Example 117, 3-(5-{4-[2-(2-Methoxy-pyridin-4-yl)-ethyl]-piperazin-1-yl}-[1,2,4]thiadiazol-3-yl)-benzonitrile]	5.8
Cc1ccc(-c2nsc(N3CCN(CCc4ccccc4)CC3)n2)cn1 [Example 94, 1-[3-(6-Methyl-pyridin-3-yl)-[1,2,4]thiadiazol-5-yl]-4-phenethyl-piperazine]	9.5
N#Cc1ccc(-c2nsc(N3CCN(CCc4ccc(F)c(F)c4)CC3)n2)cc1 [Example 138, 4-(5-{4-[2-(3,4-Difluoro-phenyl)-ethyl]piperazin-1-yl}-[1,2,4]thiadiazol-3-yl)-benzonitrile]	18.2
COc1cccc(CCN2CCN(c3nc(-c4ccncc4)ns3)CC2)c1 [Example 20, 1-[2-(3-Methoxy-phenyl)-ethyl]-4-(3-pyridin-4-yl-[1,2,4]thiadiazol-5-yl)-piperazine]	174
Fc1ccc(-c2nsc(N3CCN(CCc4ccc(C(F)(F)F)cc4)CC3)n2)cc1F [Example 146, 1-[3-(3,4-Difluoro-phenyl)-[1,2,4]thiadiazol-5-yl]-4-[2-(4-trifluoromethyl-phenyl)-ethyl]-piperazine]	60.1
COc1ccc(-c2nsc(N3CCN(CCc4cccc(OC)c4)CC3)n2)cc1 [Example 49, 1-[2-(3-Methoxy-phenyl)-ethyl]-4-[3-(4-methoxy-phenyl)-[1,2,4]thiadiazol-5-yl]-piperazine]	49.6
Fc1cccc(-c2nsc(N3CCN(CCc4cccc(C(F)(F)F)c4)CC3)n2)c1 [Example 141, 1-[3-(3-Fluoro-phenyl)-[1,2,4]thiadiazol-5-yl]-4-[2-(3-trifluoromethyl-phenyl)-ethyl]-piperazine]	198
Cc1ccccc1CN1CCN(c2nc(-c3ccc(C#N)cc3)ns2)CC1 [Example 118, 4-{5-[4-(2-Methyl-benzyl)-piperazin-1-yl]-[1,2,4]thiadiazol-3-yl}-benzonitrile]	181
Clc1ccc(-c2nsc(N3CCN(CCC4CCOCC4)CC3)n2)cc1 [Example 167, 3-(4-chlorophenyl)-5-(4-(2-(tetrahydro-2H-pyran-4-yl)ethyl)piperazin-1-yl)-1,2,4-thiadiazole]	5.9
